# How the values were obtained:
# [1] = tested on: desmocollin-1 (DSC1) expression; test: Ex vivo skin model, desmocollin-1 immunohistochemical staining; assay type: cell-based, human; conditions: 0.003% retinol in media, 7-day culture
# Description: The effect of acetyl trifluoromethylphenyl valylglycine and/or retinoids on skin turnover/desquamation, filaggrin expression, desmocollin-1 expression was evaluated in an ex vivo skin model. In this study, the effects of acetyl trifluoromethylphenyl valylglycine (0.1%), retinol (0.003%) and acetyl trifluoromethylphenyl valylglycine+retinol on the skin were evaluated by H&E (assessing for overall tissue health), filaggrin (assessing the level of barrier renewal) and desmocollin-1 (assessing the tight junction between the keratinocytes). Fresh post-abdominoplasty normal human skin samples (3 lots, age 36-59 years old, Hispanic/Caucasian/African American, female) were acquired from BioIVT Inc. (Westbury, N.Y.). Tissue was defatted and cleaned of blood residue. Explant samples were then created using a 12 mm biopsy punch. Samples were cleaned with sterile PBS. Skin biopsies not receiving treatment served as controls. Skin explants were maintained at air-liquid interface at 37° C. and 5% CO2 in four different treatment groups (n=3 per media type): • 1. […] The primary staining was followed by rabbit anti-mouse IgG or anti-rabbit Poly-HRP-IgG respectively and were detected using the Bond Polymer Refine Detection kit (DS9800, Leica Biosystems, UK). […]
# [2] = tested on: normal human skin samples (explants); test: Ex vivo skin model, H&E staining (overall tissue health); assay type: cell-based; conditions: 0.003% retinol in media, 7-day culture
# [3] = assay type: in vitro ADME, human
# Description: Human skin samples were obtained from abdominal surgery. Excess subcutaneous fat was removed, if necessary. Skin samples were excised and cut into pieces of around 2 cm×2 cm. Thickness was measured and transepidermal water loss (TEWL) was measured. The human skin was included in the study if the TEWL was between 0.5 and 13 g/m^2/h for abdominal skin. The 2 cm^2 skin samples were kept in a static cell in a diffusion chamber in a Franz cell horizontal cell clamp system (Crown Glass Company, Inc.) and maintained at a constant temperature of 32° C.±1° C. The static cells consist of a donor chamber and a receptor chamber with a 7 mL receptor fluid compartment separated by the skin.
# The cells were placed on a magnetic stirrer which was integrated with a fixed temperature water bath maintained in order to have 32° C.±1° C. at the skin surface. The receptor compartment of each cell was filled with the receptor fluid (PBS) and was continuously stirred. The skin samples were placed on the receptor compartment. The donor compartment was then placed onto the skin samples. […]
# A composition containing 2 wt % acetyl trifluoromethylphenyl valylglycine was applied to the skin sample at a rate of 10 mg/cell using a positive displacement pipette and the exact amount applied was determined by weight then recorded (Sartorius Entris II Essential Analytical balance, Thermo-Fisher). […]
# The skin was then stripped with consistent weight and time of application. […] The strips samples were stored with solvent (methanol) at −20° C. for a maximum of 5 days before being analyzed. […] The RS vials were stored with solvent (methanol) at −20° C. for a maximum of 7 days before being analyzed. Dermis and epidermis samples were stored with solvent at −20° C. for a maximum of 7 days before being analyzed. The receptor fluid was taken 16 hours after the application and the samples were analyzed.
# Receptor fluid samples were stored at −20° C. for a maximum of 6 days before being analyzed. […] Samples were stored at −20° C. for a maximum of 5 days before being analyzed.
# The final extract was analyzed by LC-MS/MS. […]
# [4] = tested on: filaggrin (FLG) expression; test: Ex vivo skin model, filaggrin immunohistochemical staining; assay type: cell-based, human; conditions: 0.1% acetyl trifluoromethylphenyl valylglycine added to 0.003% retinol, 7-day culture
# Description: The effect of acetyl trifluoromethylphenyl valylglycine and/or retinoids on skin turnover/desquamation, filaggrin expression, desmocollin-1 expression was evaluated in an ex vivo skin model. In this study, the effects of acetyl trifluoromethylphenyl valylglycine (0.1%), retinol (0.003%) and acetyl trifluoromethylphenyl valylglycine+retinol on the skin were evaluated by H&E (assessing for overall tissue health), filaggrin (assessing the level of barrier renewal) and desmocollin-1 (assessing the tight junction between the keratinocytes).
# Fresh post-abdominoplasty normal human skin samples (3 lots, age 36-59 years old, Hispanic/Caucasian/African American, female) were acquired from BioIVT Inc. (Westbury, N.Y.). Tissue was defatted and cleaned of blood residue. Explant samples were then created using a 12 mm biopsy punch. Samples were cleaned with sterile PBS. Skin biopsies not receiving treatment served as controls. Skin explants were maintained at air-liquid interface at 37° C. and 5% CO2 in four different treatment groups (n=3 per media type): • 1. […]
# Skin explants were processed for haematoxylin and eosin, and immunohistochemical staining (Reveal Biosciences, CA). […] The primary staining was followed by rabbit anti-mouse IgG or anti-rabbit Poly-HRP-IgG respectively and were detected using the Bond Polymer Refine Detection kit (DS9800, Leica Biosystems, UK). […]
structure (smiles),measurement,setting,value
CC1=C(/C=C/C(C)=C/C=C/C(C)=C/CO)C(C)(C)CCC1 [retinol],expression of desmocollin-1,[1],downward expression
same,change in H&E,[2],some mild level of skin irritation
CC(=O)N(c1cccc(C(F)(F)F)c1)C(C(=O)NCC(=O)O)C(C)C (stereo not drawn) [acetyl trifluoromethylphenyl valylglycine],amount penetrated through the stratum corneum,[3],about 0.08 wt %
same,"amount penetrating past the stratum corneum barrier into epidermis, dermis and receptor fluid",[3],about 0.8%
same,dermal dose,[3],at least 0.08 wt %
same,expression of filaggrin,[4],increases the expression

# Reference: patent publication US20230190608A1, “COMPOSITIONS AND METHODS FOR IMPROVING THE APPEARANCE OF SKIN” (L'Oreal, priority 2021, published 2023)
